Measurements reported in patent US11077127B2, “Adjuvant containing baicalin, particularly from a Scutellaria baicalensis extract, and animal feed containing such an adjuvant” (DELTAVIT, priority 2014, dated 2021).

Legend:
Isabrown laying hens = assay: Test 3: feed intake and egg laying of laying hens subject to thermal stress; format: in vivo, hen
Description: Test 3: Study of the Effect of the Administration of a Feed Comprising the Adjuvant with the Scutellaria baicalensis Extract on a Solid Vehicle on the Feed Intake of Laying Hens Subject to Thermal Stress 72 Isabrown laying hens thirty weeks old at the beginning of the test were divided into three groups of twelve cages each containing two hens. The test was carried out until the hens were 38 weeks old. Group 1 received the control feed. Group 2, also called the OTC group, received the control feed supplemented with an antibiotic, 400 ppm of oxytetracycline. Group 3, also called the SCU group, received the control feed supplemented with an extract from the root of Scutellaria baicalensis providing 6 mg of baicalin/kg of feed. After three weeks of distribution of the experimental feed, the hens were subject to a variation in temperature. The temperature of the environment increased from 22° C. (thermal comfort) to 35° C. for 5 days. Food intake, number of eggs laid and average weight of the eggs were recorded every week and every day during the week of the high temperature as well as during the following week. The test was divided into three phases: pre-heat increase phase, thermal stress phase and post-high temperature stress phase.

piglets = assay: Test 5: state of health and resistance to disease of piglets subject to a stress; format: in vivo, pig; conditions: 100 ppm in the feed
Description: Test 5: Study of the Effect of the Administration of a Feed Comprising the Adjuvant with the Extract of Scutellaria baicalensis on a Solid Vehicle on the Improvement in the State of Health and Resistance to Disease of Piglets Subject to a Stress
The piglets were 42 days old at the beginning of the test. Three groups were formed: a control group, a group receiving the same feed supplemented with 100 ppm of an antibiotic (tylosine) and finally the last group receiving a feed supplemented with 100 ppm of an extract of Scutellaria baicalensis, that is 30 ppm of baicalin per kg of feed. The diseases were noted as were the curative treatments used in each groups.

Compound	egg-laying rate (Isabrown laying hens; 2 weeks including the thermal stress phase and the following week, control 85.2%)	daily feed intake per hen (Isabrown laying hens; thermal stress phase (35° C. for 5 days), OTC 400 ppm in feed, SCU 6 mg baicalin/kg of feed, control 50.9 g)	% Pigs not treated (piglets)	% Pigs treated (piglets)	% treatments (piglets)	Mortality + elimination (%) (piglets)	Number of treatments: Cough (piglets)	Number of treatments: Lame (piglets)	Number of treatments: Lean (piglets)	Number of treatments: Nervous symptoms (piglets)	Number of treatments: Watery diarrhoea (piglets)	Pigs treated per cause: Cough (piglets)	Pigs treated per cause: Lame (piglets)	Pigs treated per cause: Lean (piglets)	Pigs treated per cause: Nervous symptoms (piglets)	Pigs treated per cause: Watery diarrhoea (piglets)	Number of pigs treated (piglets; P (Chi2) <0.05)	Number of treatments (piglets; curative treatments, P (Chi2) <0.05)	Withdrawn from test (piglets; number of pigs)	Number of deaths (piglets; piglets 42 days old at start)
CN(C)[C@@H]1C(O)=C(C(N)=O)C(=O)[C@@]2(O)C(O)=C3C(=O)c4c(O)cccc4[C@@](C)(O)[C@H]3[C@H](O)[C@@H]12 [OTC, oxytetracycline]	88.5%	53.5 g																		
CC[C@H]1OC(=O)C[C@@H](O)[C@H](C)[C@@H](O[C@@H]2O[C@H](C)[C@@H](O[C@H]3C[C@@](C)(O)[C@@H](O)[C@H](C)O3)[C@H](N(C)C)[C@H]2O)[C@@H](CC=O)C[C@@H](C)C(=O)/C=C/C(C)=C/[C@@H]1CO[C@@H]1O[C@H](C)[C@@H](O)[C@@H](OC)[C@H]1OC [Tylosine, tylosine]			48%	52%	56.0%	4.0%	7	0	2	1	4	7	0	2	1	4	13	14	1	0
